Test results from article PMC6332446, “Acylphloroglucinol Derivatives from the South African Helichrysum niveum and Their Biological Activities” (Molecules, 2015).

Tests used:
[1] = ORAC assay, hydroxyl radical absorbance capacity (ORACOH); conditions: trolox equivalents; H2O2 0.3%, Cu2+ 18 μM, 37 °C; ± % STDEV
Procedure: (§1) Automated Oxygen Radicals Absorbance Capacity (ORAC) Assay: ORAC was measured according to the method previously described. The method measures the antioxidant scavenging capacity for (a) peroxyl radicals generated by thermal decomposition of 2,2ʹ-azobis ([…]) dihydrochloride (AAPH; ORACROO assay); (b) hydroxyl radical (ORACOH assay), generated by H2O2-Cu^2+ (H2O2, 0.3%; Cu^2+ [as CuSO4], 18 μM, or (c) Cu^2+ [as CuSO4], 18 μM as a transition metal oxidant at 37 °C. ORAC values were expressed as micromoles of trolox equivalents (TE) per milligram of test sample, except when Cu^2+ (without H2O2) was used as an oxidant in the assay. In the presence of Cu^2+ without H2O2, test samples acted as prooxidants rather than antioxidants in the ORAC assay. The copper-initiated prooxidant activity was calculated using [(AreaBlank − AreaSample)/AreaBlank] × 100 and expressed as prooxidant units; one unit equals the prooxidant activity that reduces the area under the fluorescein decay curve by 1% in the ORAC assay.

[2] = Copper-initiated prooxidant activity in the ORAC assay; conditions: Cu2+ 18 μM without H2O2, 37 °C; one unit = 1% reduction of area under fluorescein decay curve
Procedure: as §1

[3] = Trolox equivalent absorbance capacity (TEAC) assay; conditions: trolox equivalents; absorbance 734 nm, 25 °C
Procedure: Trolox Equivalent Absorbance Capacity (TEAC) Assay: The total antioxidant capacity of the test samples in terms of TEAC were measured using a previously described method. Absorbance was read at 734 nm at 25 °C in a plate reader and the results were expressed as μM trolox equivalents per milligram dry weight (μM TE/g DW) of the test samples.

[4] = Ferric-ion reducing antioxidant power (FRAP) assay; conditions: ascorbic acid equivalents; absorbance 593 nm; ± % STDEV
Procedure: Ferric-Ion Reducing Antioxidant Power (FRAP) Assay: Working FRAP reagent was prepared in accordance to the method described previously. Absorbance was measured at 593 nm. L-ascorbic acid was used as a standard and the results were expressed as μM ascorbic acid equivalents per milligram dry weight (μM AAE/g DW) of the test samples.

mushroom tyrosinase = experiment: Tyrosinase enzyme assay; format: biochemical; conditions: L-Tyrosine substrate; samples screened at 100.00 μg/mL upper limit
Procedure: Tyrosinase Enzyme Assay: The tyrosinase inhibitory activity was measured using the spectrophotometric method previously described. Samples were dissolved in DMSO to a stock solution of 1 mg/mL, and further dilutions were then done with 50 mM sodium phosphate buffer (pH 6.5) for all working solutions. […] In the wells of a 96-well plate, 70 µL of each sample working solution was combined with 30 μL of tyrosinase (500 Units/mL in sodium phosphate buffer) in triplicate. After incubation at room temperature for 5 min, 110 μL of substrate (2 mM L-Tyrosine) was added to each well. Final concentrations of the crude extract, isolated compounds, and positive control ranged from 1.0–100 μg/mL. Incubation commenced for 30 min at room temperature and the enzyme activity was determined by measuring the absorbance at 490 nm. The percentage of tyrosinase inhibition was calculated as follows: Tyrosinase inhibition (%) = [(A − B) − (C − D)]/(A − B) × 100 (1) where A is the absorbance of the control with the enzyme, B is the absorbance of the control without the enzyme, C is the absorbance of the test sample with the enzyme and D is the absorbance of the test sample without the enzyme.

[5] = target: T1, elastase from porcine pancrease (Sus scrofa, UniProt P00772); experiment: biochemical; conditions: SANA substrate; samples screened at 100.00 μg/mL upper limit; read-out: Inhibitory Activities IC50, Elastase (converted)
T1 construct: from tissue; host or cells: porcine pancreas
T1 sequence (P00772 27-266): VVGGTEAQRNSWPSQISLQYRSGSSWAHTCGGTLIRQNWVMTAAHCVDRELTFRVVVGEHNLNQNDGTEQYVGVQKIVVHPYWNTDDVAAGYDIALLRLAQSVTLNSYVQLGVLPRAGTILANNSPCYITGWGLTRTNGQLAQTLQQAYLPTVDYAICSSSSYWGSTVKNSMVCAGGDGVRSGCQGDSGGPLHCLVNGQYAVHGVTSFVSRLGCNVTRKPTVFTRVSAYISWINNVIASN
Procedure: Elastase Inhibition Assay: Inhibition of elastase by the test samples was assayed using N-succyl-(Ala)-3-nitroanilide (SANA) as the substrate, monitoring the release of p-nitroanilide by the method described previously. The inhibitory activity determined the intensity of color released during cleavage of SANA by the action of elastase. Briefly, 1 mM SANA was prepared in 0.1 M Tris-HCl buffer pH 8.0 and 200 μL of this solution was added to the 20 μL of sample solution in a 96-Well plate. The mixtures were vortexed and preincubated for 10 min at 25 °C and then 20 μL of elastase from porcine pancrease (0.03 Units/mL) was added. The mixtures were further incubated for 10 min and the absorbance was measured at 410 nm. Methanol was used as control, while oleanolic acid used as a positive control.

[6] = target: Acetylcholinesterase (AChE) (Homo sapiens, UniProt P22303); experiment: biochemical; conditions: 500.00 μg/mL upper concentration limit; read-out: Inhibitory Activities IC50, Acetylcholinesterase (converted)
Chain of Acetylcholinesterase (AChE) (P22303 32-614, species assumed): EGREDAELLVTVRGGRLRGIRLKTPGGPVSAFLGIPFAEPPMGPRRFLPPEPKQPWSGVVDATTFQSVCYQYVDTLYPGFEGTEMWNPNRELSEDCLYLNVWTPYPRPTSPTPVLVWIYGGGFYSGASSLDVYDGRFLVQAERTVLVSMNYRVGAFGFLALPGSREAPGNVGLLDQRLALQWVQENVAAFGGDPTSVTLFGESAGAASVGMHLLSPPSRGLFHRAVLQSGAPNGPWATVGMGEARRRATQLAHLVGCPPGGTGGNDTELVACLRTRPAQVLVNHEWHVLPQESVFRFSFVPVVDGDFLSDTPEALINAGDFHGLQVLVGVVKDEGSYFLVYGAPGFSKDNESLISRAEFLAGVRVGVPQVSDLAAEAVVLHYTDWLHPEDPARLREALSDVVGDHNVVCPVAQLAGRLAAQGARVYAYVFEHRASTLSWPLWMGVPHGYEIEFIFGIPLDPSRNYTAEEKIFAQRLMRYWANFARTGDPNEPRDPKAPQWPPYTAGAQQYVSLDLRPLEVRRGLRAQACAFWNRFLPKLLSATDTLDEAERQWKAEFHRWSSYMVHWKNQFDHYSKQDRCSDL
Procedure: Acetylcholinesterase Inhibition Assay: Acetylcholinesterase (AChE) inhibitory activity was measured using Ellman’s method as previously described with minor modifications. AChE catalysis the hydrolysis of acetythiocholine iodide (ACTI as substrate) to thiocholine, which can then react with Ellman’s reagent (DTNB) to produce 5-thio-2-nitrobenzoate (yellow color). In the presence of samples (inhibitors), the release of 5-thio-2-nitrobenzoate (yellow color) is reduced and it is monitored by measuring the absorbance at 450 nm.
In a 96-Well plate, the reaction mixture contains 50 µL of samples pre-incubated with 125 µL of 3 mM 5,5ʹ-Dithiobis-(2-nitrobenzoic acid), and 25 µL AChE (2.0 U/mL), in 50 mM tris-HCl buffer (pH 8.0), with 0.1% bovine serum albumin (BSA) for 15 minutes at 25 °C. Subsequently, 25 µL (15 mM) ACTI was added to the incubation mixture and further incubated for 10 min at 25 °C. […] Absorbance was recorded at 450 nm. The percent AChE inhibitory activity is given by: [A0 − (B − C)]/A0 × 100 (3) where A0 = full enzymatic reaction; B = Activity in the presence of sample; and C = Activity without sample.

Rat liver microsomes = conditions: Fe2+-induced, TBARs, samples screened at 50.00 μg/mL, ± STDEV
[7] = ORAC assay, peroxyl radical absorbance capacity (ORACROO); conditions: trolox equivalents; AAPH, 37 °C; ± % STDEV
Procedure: as §1

| SMILES | Hydroxyl (ORACOH) [1] | Prooxidant (copper-initiated prooxidant activity) [2] [prooxidant units] | TEAC [3] [μM TE/g DW] | FRAP [4] [µMAAE/g] | Inhibitory Activities IC50, Tyrosinase (mushroom tyrosinase) [µg/mL] | IC50 [5] [µM] | IC50 [6] [µM] | Anti-Lipid peroxidation IC50 (Rat liver microsomes) [µg/mL] | Peroxyl (ORAC peroxyl radical absorbance capacity) [7] [µM TE/g] |
| --- | --- | --- | --- | --- | --- | --- | --- | --- | --- |
| CC(=O)OC/C(C)=C/Cc1c(O)cc(O)c(C(=O)c2ccccc2)c1O [Compound 1, 1-benzoyl-3(3-methylbut-2-enylacetate)-phloroglucinol] | 64.85 ± 10.95 × 10^6 µMTE/g | 8.92 ± 1.15 | 19545.00 ± 10.25 | 2530.54 ± 0.92 | 35.63 ± 4.67 | > 281 | 752 | 5.12 ± 0.90 |  |
| C=C(C)[C@@H](O)Cc1c(O)cc(O)c(C(=O)c2ccccc2)c1O [Compound 2, 1-benzoyl-3(2S-hydroxyl-3-methylbut-3-enyl)-phloroglucinol] | 94.97 ± 5.88 × 10^6 µMTE/g | 756.90 ± 1.98 | 43615.73 ± 6.66 | 4950.08 ± 0.65 | 26.72 ± 5.05 | > 318 | 852 | 3.55 ± 1.92 |  |
| CC(C)C(=O)c1c(O)cc(O)c2c1OC(C)(C)[C@@H](O)C2 [Compound 3, 8-(2-methyl-1-propanone)-3S,5,7-trihydroxyl-2,2-dimethylchromane] | 5.99 ± 4.52 × 10^6 µMTE/g | 41.73 ± 8.20 | 6001.40 ± 5.63 | 155.65 ± 12.02 | 80.31 ± 3.31 | 90.3 | 974 | >50.00 | 3937.78 ± 25.85 |
| CCC(C)C(=O)c1c(O)cc(OCC=C(C)C)cc1O (centres unmarked) [Compound 4, 1-(2-methylbutanone)-4-O-prenyl-phloroglucinol] | 3.92 ± 14.47 × 10^6 µMTE/g | 7.02 ± 4.02 | 1629.10 ± 2.03 | 194.27 ± 1.78 | >100.00 | 164 | 981 | 44.62 ± 2.08 | 5406.65 ± 1.39 |
| CC(C)=CCOc1cc(O)c(C(=O)C(C)C)c(O)c1 [Compound 5, 1-(2-methylpropanone)-4-O-prennyl-phloroglucinol] | 5.60 ± 0.79 × 10^6 µMTE/g | 12.33 ± 6.62 | 2673.62 ± 1.68 | 446.64 ± 8.07 | >100.00 | 263 | 957 | 20.22 ± 2.72 | 6053.87 ± 18.67 |
| CCCC(=O)c1c(O)cc(O)c(CC=C(C)C)c1O [Compound 6, 1-(butanone)-3-prenyl-phloroglucinol] | 18.07± 3.47 × 10^6 µMTE/g | 64.37 ± 0.22 | 4316.61 ± 1.06 | 1183.52 ± 6.20 | >100.00 | 134 | 957 | 30.80 ± 2.12 | 13544.93 ± 12.13 |
| CCC(C)C(=O)c1c(O)cc(O)c(CC=C(C)C)c1O (centres unmarked) [Compound 7, 1-(2-methylbutanone)-3-prenyl-phloroglucinol] | 23.12 ± 18.94 × 10^6 µMTE/g | 73.87 ± 1.10 | 9998.71 ± 2.66 | 1029.03 ± 0.66 | >100.00 | 240 | 936 | 27.49 ± 3.19 | 14139.74 ± 5.96 |
| CCCC(=O)c1c(O)cc(O)c(C/C=C(\C)COC(C)=O)c1O [Compound 8, 1-butanone-3-(3-methylbut-2-enylacetate)-phloroglucinol] | 16.70 ± 1.25 × 10^6 µMTE/g | 76.59 ± 0.27 | 6757.40 ± 4.69 | 1203.02 ± 2.07 | >100.00 | 197 | 769 | 27.56 ± 0.63 | 14218.17 ± 12.36 |
| CC(C)=CCc1c(O)cc(O)c(C(=O)C(C)C)c1O [Compound 9, 1-(2-methylpropanone)-3-prenylphloroglucinol] | 24.24 ± 1.71 × 10^6 µMTE/g | 69.54 ± 0.29 | 4423.32 ± 3.11 | 1096.01 ± 1.12 | >100.00 | 233 |  | 20.95 ± 2.62 | 13639.27 ± 17.62 |
| CC(=O)OC/C(C)=C/Cc1c(O)cc(O)c(C(=O)C(C)C)c1O [Compound 10, caespitate] | 16.26 ± 15.39 × 10^6 µMTE/g | 92.31 ± 1.59 | 8705.14 ± 1.83 | 1019.28 ± 1.79 | >100.00 | 182 | 777 | 20.50 ± 4.01 | 16735.55 ± 21.72 |
| O=C(O[C@@H]1Cc2c(O)cc(O)cc2O[C@@H]1c1cc(O)c(O)c(O)c1)c1cc(O)c(O)c(O)c1 [EGCG, epigallocatechin gallate, reference compound] | 3.91 ± 4.65 × 10^6 µMTE/g | 6.48 ± 1.19 | 11545.44 ± 17.28 | 3326.45 ± 5.76 |  |  |  | 1.04 ± 1.02 |  |
